Values after ≈ are worked out from the molar mass of the structure shown. Where a name gives a salt, the structure may show the parent alone.
Assays:
B. Fragilis WS-1 = assay: MIC/MBC anti-anaerobic screen, strain E; type: cell-based; conditions: Bacteroides fragilis, 48 h; for MIC: 37° C., anaerobic, read-out: Minimum Inhibitory Concentration (MIC)
Procedure: (§1) The screening panel utilized in this Example consisted of 5 strains of Bacteroides fragilis. All assays were carried out in 96 well microtitre plates. If an isolate was obtained from either a culture collection or clinical source, the isolate was immediately inoculated into Wilkins-Chalgren broth (Oxoid) and incubated at 37° C. in an anaerobic chamber in an atmosphere of 85% nitrogen, 10% carbon dioxide, and 5% hydrogen for 48 hours. At the end of this time, the viable count was about 10^12 organisms/ml broth. A 1 ml aliquot of each culture was placed in an ampoule and quick frozen in an acetone-dry-ice mixture and stored in liquid nitrogen. When an inoculum was utilized in an assay, one of the ampoules was thawed and diluted with fresh broth to yield a suspension having a count of 5×10^5 organisms/ml. 100 ul of the suspension was inoculated into each well of the microtitre plate. 2 mg of the test compound was dissolved on 0.2 ml of a suitable solvent such as dimethylsulphoxide, polyethylene glycol 200 or methanol. […] After addition of the test solution, the final inoculum level is 10^5 cells/ml. The plates were incubated for 48 hours at 37° C. in the anaerobic chamber. The Minimum Inhibitory Concentration (MIC) was read visually. The MIC is defined as the lowest concentration at which there is no detectable growth. The Minimum Bactericidal Concentration (MBC) was determined by taking a 50 ul aliquot from each well and placing it in fresh medium.

B. Fragilis NCTC 10581 = assay: MIC/MBC anti-anaerobic screen, strain A; type: cell-based, Bacteroides fragilis; conditions: 37° C.; for MIC: Bacteroides fragilis, NCTC10581, 48 h, read-out: Minimum Inhibitory Concentration (MIC)
Procedure: as §1

B. Fragilis NCTC 9343 = assay: MIC/MBC anti-anaerobic screen, strain B; type: cell-based; conditions: Bacteroides fragilis, NCTC9343, 48 h, 37° C., read-out: Minimum Inhibitory Concentration (MIC)
Procedure: as §1

B. Fragilis ATCC 11295 = assay: MIC/MBC anti-anaerobic screen, strain D; type: cell-based; conditions: Bacteroides fragilis, ATCC11295, 48 h, 37° C., read-out: Minimum Inhibitory Concentration (MIC)
Procedure: as §1

B. Fragilis NCTC 9344 = assay: MIC/MBC anti-anaerobic screen, strain C; type: cell-based; conditions: Bacteroides fragilis, NCTC9344, 48 h, 37° C., read-out: Minimum Inhibitory Concentration (MIC)
Procedure: as §1

## CC1=NCCN1CC(C1=NCCN1c1ccc(Cl)cc1Cl)c1ccccc1 (centres unmarked) [Example 23, 1-(2,4-Dichlorophenyl)-4,5-dihydro-2-[2-(4,5-dihydro-2-methylimidazol-1-yl)-1-phenylethyl]imidazole dihydrochloride]
B. Fragilis WS-1
  MIC: 0.8 µg/mL

## Clc1ccccc1N1CCN=C1C(Cn1ccnc1)c1ccccc1 (centres unmarked) [Example 1, 1-(2-Chlorophenyl)-4,5-dihydro-2[2-(imidazol-1-yl)-1-phenylethyl)imidazole]
B. Fragilis NCTC 10581
  MIC: 3.1 µg/mL (≈ 8.84 µM)

## CCCCCCCCN1CCN=C1C(Cn1ccnc1)c1ccccc1 (centres unmarked) [Example 19, 4,5-Dihydro-2-[2-(imidazol-1-yl)-1-phenylethyl]-1-n-octylimidazole dihydrochloride]
B. Fragilis NCTC 9343
  MIC: 3.1 µg/mL

## Cc1ncc([N+](=O)[O-])n1CCO [Metronidazole, reference compound]
B. Fragilis NCTC 10581; 48 hours
  Minimum Inhibitory Concentration (MIC): 0.8 µg/mL

## Clc1ccc(N2CCN=C2C(Cn2ccnc2)c2ccccc2)c(Cl)c1 (centres unmarked) [Example 3, 1-(2,4-Dichlorophenyl)-4,5-dihydro-2-[2-(imidazol-1-yl)-1-phenylethyl]imidazole hydrochloride]
B. Fragilis NCTC 10581
  MIC: 0.8 µg/mL
B. Fragilis WS-1; 99.9% reduction in viable count, read-out: Minimum Bactericidal Concentration (MBC)
  MBC: 3.1 µg/mL
B. Fragilis ATCC 11295
  MIC: 0.8 µg/mL
B. Fragilis NCTC 9344
  MIC: 0.8 µg/mL

## CSc1nccn1CC(C1=NCCN1c1ccc(Cl)cc1Cl)c1ccccc1 (centres unmarked) [Example 22, 1-(2,4-Dichlorophenyl)-4,5-dihydro-2-[1-phenyl-2-(2-thiomethylimidazol-1-yl)ethyl]imidazole dihydrochloride]
B. Fragilis WS-1
  MIC: 3.1 µg/mL
B. Fragilis ATCC 11295
  MIC: 3.1 µg/mL
B. Fragilis NCTC 9344
  MIC: 3.1 µg/mL

## Brc1ccc(N2CCN=C2C(Cn2ccnc2)c2ccccc2)c(Br)c1 (centres unmarked) [Example 2, 1-(2,4-Dibromophenyl)-4,5-dihydro-2-[2-(imidazol-1-yl)-1-phenylethyl]imidazole dihydrochloride]
B. Fragilis NCTC 10581
  MIC: 0.8 µg/mL
B. Fragilis NCTC 9343
  MIC: 3.1 µg/mL
B. Fragilis WS-1
  MIC: 0.8 µg/mL

## Clc1ccc(CN2CCN=C2C(Cn2cccn2)c2ccccc2)c(Cl)c1 (centres unmarked) [Example 16, 1-(2,4-Dichlorophenylmethyl)-4,5-dihydro-2-[1-phenyl-2-(pyrazol-1-yl)ethyl]imidazole dihydrochloride]
B. Fragilis NCTC 10581
  MIC: 2.5 µg/mL
B. Fragilis NCTC 9344
  MIC: 3.1 µg/mL

## Cc1nccn1CC(C1=NCCN1c1ccc(Cl)cc1Cl)c1ccccc1 (centres unmarked) [Example 21, 1-(2,4-Dichlorophenyl)-4,5-dihydro-2-[2-(2-methylimidazol-1-yl)-1-phenylethyl]imidazole dihydrochloride]
B. Fragilis WS-1
  MIC: 0.8 µg/mL
B. Fragilis ATCC 11295
  MIC: 3.1 µg/mL
B. Fragilis NCTC 9344
  MIC: 0.8 µg/mL

## Clc1ccc(CN2CCN=C2C(Cn2ccnc2)c2ccccc2)c(Cl)c1 (centres unmarked) [Example 15, 1-(2,4-Dichlorophenylmethyl)-4,5-dihydro-2-[2-(imidazol-1-yl)-1-phenylethyl]imidazole]
B. Fragilis NCTC 10581
  MIC: 3.1 µg/mL (≈ 7.76 µM)
B. Fragilis NCTC 9343
  MIC: 3.1 µg/mL (≈ 7.76 µM)
B. Fragilis ATCC 11295
  MIC: 3.1 µg/mL (≈ 7.76 µM)
B. Fragilis NCTC 9344
  MIC: 3.1 µg/mL (≈ 7.76 µM)

## CCCCCCCCCCN1CCN=C1C(Cn1ccnc1)c1ccccc1.Cl.Cl (centres unmarked) [Example 26, 1-n-Decyl-4,5-dihydro-2-[2-(imidazol-1-yl)-1-phenylethyl]imidazole dihydrochloride]
B. Fragilis WS-1
  MIC: 3.1 µg/mL
B. Fragilis ATCC 11295
  MIC: 3.1 µg/mL
B. Fragilis NCTC 9344
  MIC: 3.1 µg/mL

Source: patent publication US4732989A, “Substituted alkyl imidazole derivatives” (G. D. Searle & Co., priority 1986, dated 1988)
